Data published in ChEMBL document CHEMBL1157728, “Novel small molecule bradykinin B1 receptor antagonists. Part 2: 5-membered diaminoheterocycles” (Bioorg Med Chem Lett, 2010).
≈ marks a conversion by molar mass, not a printed value.

Columns and labels:
[1] = Solubility of the compound; assay type: physicochemical
[2] = target: T1, B1 bradykinin receptor (Homo sapiens, UniProt P46663); test: Antagonist activity at bradykinin B1 receptor in human IMR90 cells pretreated with IL1-beta assessed as inhibition of DAKD-induced calcium mobilization; assay type: functional, cell-based, IMR-90
T1 sequence (P46663 whole entry): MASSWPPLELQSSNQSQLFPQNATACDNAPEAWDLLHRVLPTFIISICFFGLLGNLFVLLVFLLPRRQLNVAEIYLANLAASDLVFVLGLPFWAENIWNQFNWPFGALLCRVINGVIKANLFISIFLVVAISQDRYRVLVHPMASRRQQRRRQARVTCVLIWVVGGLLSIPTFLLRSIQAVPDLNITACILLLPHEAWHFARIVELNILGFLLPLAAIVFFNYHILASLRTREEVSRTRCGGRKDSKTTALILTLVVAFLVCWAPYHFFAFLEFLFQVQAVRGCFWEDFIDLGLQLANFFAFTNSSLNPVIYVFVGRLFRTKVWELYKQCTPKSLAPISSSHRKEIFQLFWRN

[3] = Solubility in aqueous buffer; assay type: physicochemical
[4] = Efflux ratio of permeability from basolateral to apical side to apical to basolateral side in human Caco-2 cells; assay type: ADME, cell-based
[5] = Solubility in water; assay type: physicochemical
[6] = Metabolic stability in human liver microsomes assessed as compound remaining after 1 hr; assay type: ADME, Microsome; conditions: read-out: Stability
[7] = Apparent permeability from apical to basolateral side of human Caco-2 cells; assay type: ADME, cell-based; conditions: read-out: permeability

IC50 [2]	SMILES	other results
7.7 nM	CC(=O)Nc1nonc1NCc1ccc(-c2cc(Cl)cc(F)c2-c2noc(C)n2)cc1F	solubility [1]: 21 µM (≈ 9.68 µg/mL)
1.7 nM	CC(=O)Nc1nsnc1NCc1ccc(-c2cc(Cl)cc(F)c2-c2noc(C)n2)cc1F	–
0.7 nM	COc1cc(C(=O)Nn2c(NCc3ccc(-c4cc(Cl)cc(F)c4-c4noc(C)n4)cc3F)nc3ccccc32)on1	solubility [3]: 14 µM (≈ 8.29 µg/mL); efflux ratio [4]: 7.1
85 nM	COc1cc(C(=O)Nn2c(NCc3ccc(-c4cc(Cl)cc(F)c4-c4noc(C)n4)cc3F)nc(C)c2C)on1	solubility [5]: 40 µM (≈ 22.8 µg/mL)
42000 nM	COC(=O)c1c(F)cccc1-c1ccc(CN2CCCC2=O)c(F)c1	–
1.6 nM	CC(=O)Nn1ccnc1NCc1ccc(-c2cc(Cl)cc(F)c2-c2noc(C)n2)cc1F	–
0.3 nM	CC(=O)Nn1c(Cl)cnc1NCc1ccc(-c2cc(Cl)cc(F)c2-c2noc(C)n2)cc1F	–
1.7 nM	COc1cc(C(=O)Nn2ccnc2NCc2ccc(-c3cc(Cl)cc(F)c3-c3noc(C)n3)cc2F)on1	solubility [5]: 42 µM (≈ 22.8 µg/mL)
180 nM	CC(=O)Nn1c(NCc2ccc(-c3cc(Cl)cc(F)c3-c3noc(C)n3)cc2F)nc(C)c1C	–
0.6 nM	COc1cc(C(=O)Nc2nsnc2NCc2ccc(-c3cc(Cl)cc(F)c3-c3noc(C)n3)cc2F)on1	–
35000 nM	COC(=O)c1c(F)cccc1-c1ccc(CNC(C)=O)c(F)c1	–
6100 nM	COC(=O)c1c(F)cccc1-c1ccc(CN2Cc3ccccc3C2=O)c(F)c1	–
1 nM	COc1cc(C(=O)Nc2nonc2NCc2ccc(-c3cc(Cl)cc(F)c3-c3noc(C)n3)cc2F)on1	remaining at 1 h [6]: 61%; solubility [1]: 12 µM (≈ 6.53 µg/mL); Papp A→B [7]: 48 ×10⁻⁶ cm/s; efflux ratio [4]: 1
3.5 nM	COc1cc(C(=O)Nc2cn[nH]c2NCc2ccc(-c3cc(Cl)cc(F)c3-c3noc(C)n3)cc2F)on1	–
4.6 nM	CC(=O)Nn1c(NCc2ccc(-c3cc(Cl)cc(F)c3-c3noc(C)n3)cc2F)nc2ccccc21	solubility [5]: 40 µM (≈ 20.4 µg/mL)
3500 nM	COC(=O)c1c(F)cccc1-c1ccc(CNc2nc3ccccc3[nH]2)c(F)c1	–
